Literature values in patent publication US20040242457A1, “Use of anti-glaucoma drugs to treat visual defects associated with the use of a GABAergic agent” (priority 2003, published 2004).

Conditions: reports from the literature

patients treated with GVG who develop visual field defects (VFDs): 25-50%
Structure (SMILES): C=CC(N)CCC(=O)O (racemic) [GVG, 4-amino-hex-5-enoic acid]
